Results: PubChem BioAssay AID652207 (The Scripps Research Institute Molecular Screening Center, 2013)
Activity calls are given as the source filed them.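 Rule for the calls: active = IC50 below 10 µM for blocking the PP1 phosphatase acting on a fluorogenic substrate; inactive = IC50 of 10 µM or more.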

Target: Serine/threonine-protein phosphatase PP1-alpha catalytic subunit (Homo sapiens) (UniProt P62136)
Assay: PP1 inhibitor potency with OMFP substrate, dose response, biochemical, fluorescence, set 2 (AID 652207)
Details: purified PP1alpha, OMFP dephosphorylation fluorescence

Sequence of Serine/threonine-protein phosphatase PP1-alpha catalytic subunit (Homo sapiens) (P62136 whole entry, looked up): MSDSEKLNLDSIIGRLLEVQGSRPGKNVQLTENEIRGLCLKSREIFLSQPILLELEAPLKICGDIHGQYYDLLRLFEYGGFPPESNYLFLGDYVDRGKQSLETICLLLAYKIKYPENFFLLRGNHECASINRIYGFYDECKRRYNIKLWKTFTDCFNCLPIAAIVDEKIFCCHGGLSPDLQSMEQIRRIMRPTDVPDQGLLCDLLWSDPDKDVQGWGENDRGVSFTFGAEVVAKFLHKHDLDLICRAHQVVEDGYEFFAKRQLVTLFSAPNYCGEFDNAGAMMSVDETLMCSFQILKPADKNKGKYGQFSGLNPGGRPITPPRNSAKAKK

SMILES	IC50
CN1CCN(C(c2ccccn2)c2ccc3cccnc3c2O)CC1 (stereo unspecified)	1150 nM
CN1CCN(Cc2cc(Cl)c3cccnc3c2O)CC1	inactive
Oc1c(C(c2ccccn2)N2CCOCC2)cc(Cl)c2cccnc12 (stereo unspecified)	1320 nM
Oc1c(Cc2ccccn2)ccc2cccnc12	2640 nM

Next, values leading:

IC50	SMILES
1620 nM	CN1CCN(C(c2nccs2)c2cc(Cl)c3cccnc3c2O)CC1 (stereo unspecified)
8420 nM	CN1CCN(C(c2cccs2)c2cc(Cl)c3cccnc3c2O)CC1 (stereo unspecified)
